These results are taken from publication PMC7440915, “Discovery of surrogate agonists for visceral fat Treg cells that modulate metabolic indices in vivo” (eLife, 2020).

Where no end group is shown, it is not given here.

The target in one experiment is vTreg53 (Fat) TCR. The experiment can be described thus: Surface plasmon resonance, pMHC/Fat TCR affinity. It is filed as binding, murine. The following applies: 25°C. The method, then: (§1) Figure 3. Identification of robust vTreg53 TCR agonists. Single-point mutants based on the Fat7 (A) or Fat15 (B) peptides were used to stimulate Fat-TCR transduced Jurkat T cells. Data shown are mean fluorescence intensity for CD69 up-regulation following overnight stimulation with the indicated peptides at 100 µM. (C) Potent SPs based on Fat15. Single-residue mutations from the Fat15 are shown in red. Anchor positions are shown in grey and potential TCR-facing positions are shown in green. A peptide titration of single- and double-point mutants from the Fat15 SP show up to ~4- (D; CD69) or ~8 fold (E; CD25) increase in Emax. (F) Surface plasmon resonance for Fat7, Fat15, Fat1562 and Fat2564 was used to determine the pMHC/Fat TCR affinity. All biotinylated pMHC were purified by SEC and immobilized in a streptavidin-coated SPR sensor chip from 200 up to 600 RU. Data are mean ± SD from n = 2 (A, D, E) or 3 (B) biological replicates from 1 representative of 3 independent experiments. Data shown in (F) is representative of 2 independent experiments. Figure 3—figure supplement 1. In vitro peptide stimulation of the vTreg53 TCR cells. (A) Expression of wild-type Ab MHC in stably transduced K562 cells. (B) Expression of vTreg53 TCR in stably transduced Jurkat T cells (TCRαβ-/-). (C) Fraction of CD25+/CD69+ cells following overnight stimulation with Fat mimotopes at the indicated concentrations. (D) Peptide-A^b - streptavidin PE (pAb -SAPE) titration of vTreg53 transduced Jurkat T cells. Cells were stained with 250 nM of pA^b-SAPE tetramer for 1 hr.
High Five cells (Tni; Expression Systems) were grown in Insect X-press media (Lonza) or ESF 921 media (Expression Systems) with a final concentration of 10 mg/L of gentamicin sulfate (ThermoFisher) at 27°C at atmospheric CO2. SF9 cells are grown in SF900-III or -II serum-free media (ThermoFisher) with 10% FBS and final concentration 10 mg/L of gentamicin sulfate and 2 mM glutamax at 27°C at atmospheric CO2. P1 or P2 virus was used to infect volumes of 1–3 L of Hi5 cells at ∼2 × 10^6 cells/ml. Supernatant was harvested 2–3 days post-infection and spun down at 8000 rpm for 15 min. The supernatant containing expressed protein was treated to 100 mM Tris pH 8.0, 1 mM NiCl2, and 5 mM CaCl2 to precipitate contaminants. The supernatant and precipitate mixture was spun down at 8000 rpm for 20 min at 4°C to remove precipitate. The supernatant was incubated with Ni-NTA resin (QIAGEN) for >3 hr at room temperature. Ni-NTA beads were collected and washed in a Buchner funnel with 20 mM imidazole in 1 x HBS pH 7.2 and eluted with 200 mM imidazole in 1x HBS pH 7.2. Protein was concentrated in a 10 kDa filter (Millipore, UFC903024) to ~1 mL. When appropriate, protein was biotinylated with BirA ligase, 100 μM biotin, 40 mM Bicine pH 8.3, 10 mM ATP, and 10 mM Magnesium Acetate at 4°C overnight. All proteins were further purified by size-exclusion chromatography using Superdex Increase S200 or S75, as appropriate (GE Healthcare). All proteins for in vivo studies were cleared of endotoxin. Final endotoxin levels were determined using a chromogenic endotoxin quantitation kit (Thermo Fisher) and never greater than 1 Endotoxin Unit/mg of purified protein.
A GE Biacore T100 was used to measure the KD by equilibrium methods. Approximately 200 resonance units (RU) of human CD45, PD-1 or mouse PD-1 was captured on a SA-chip (GE Healthcare), including a reference channel of an unrelated protein. SPR runs were performed in HBS-P+ (GE Healthcare). All measurements were made with 2-fold serial dilutions using 45–60 s association (at 30 μl/min) followed by >240 s dissociation (30 μl/min) at 25°C. Regeneration was performed using HBS-P+, 2 M MgCl2 or 0.1 M Glycine, pH 3.1 for 15–20 s at 50 μl/min. Measurement of titrations at equilibrium were used to determine the KD using Biacore Analysis Software (GE Healthcare). All measurements were repeated twice.
Background: In SPR one partner is held on a chip, and binding of the other changes the refractive index at the surface.

In experiment [1] the test system is vTreg53 TCR (transduced Jurkat T cells). The experiment can be described thus: CD69/CD25 up-regulation on vTreg53 TCR transduced Jurkat T cells with peptide-pulsed K562-A^b cells. It is filed as cell-based, Homo sapiens (cells); murine TCR. The protocol: as §1
Cell lines were kept in a humidified incubator at 37°C with 5% CO2 unless otherwise denoted. Jurkat T cells (derived from acute T cell leukemia ATCC TIB-152) and K562 cells (ATCC CCL-243) were cultured in RPMI supplemented with 2 mM glutamax (Invitrogen), 10% FBS (Sigma),10 mM HEPES pH 8.0 (ThermoFisher), 1 mM Sodium Pyruvate (Gibco) and 50 U/ml penicillin and streptomycin (ThermoFisher). Validation of T cell lines was performed by staining with known markers pre- and post- transfection or transduction. HEK293T (Lenti-X; Takara Bio USA, #632180) cells (female derived kidney cell line) were grown in DMEM complete media (ThermoFisher) supplemented with 10% FBS, 2 mM L-glutamine, and 50 U/ml of penicillin and streptomycin. Cells were tested for mycoplasma contamination using the MycoAlert Mycoplasma Detection kit (Lonza) and found to be mycoplasma-negative. For peptide assays, Jurkat T cells were rested overnight or for 2–3 hr in fresh RPMI complete. Cells were co-cultured for 16 to 48 hr with surrogate APCs: K562 transduced with A^b. After overnight incubation, cells were washed in MACS buffer and stained with anti-TCR, A^b, CD69 and CD25. EBY100 yeast cells were cultured in sterile filtered standard YPD (Bacto Peptone, glucose and yeast extract). Transformed yeast were grown in SDCAA (yeast nitrogen base, casamino acids -ADE, -URA, -TRP, D-glucose and buffered to pH 4.5 using sodium citrate and citric acid monohydrate) and induced in SGCAA where galactose replaces D-glucose. EBY100 cells are grown at 30°C when cultured in SDCAA, or at 20°C when cultured in SGCAA at atmospheric CO2 in an orbital shaker set to an agitation speed of 250 rpm.

TMYKNPRPVAATG [Fat15] displayed a Kd on vTreg53 (Fat) TCR (Biacore T100, biotinylated pMHC immobilized on SA chip 200 to 600 RU, HBS-P+, equilibrium, representative of 2 experiments) of 32.8 µM. Also, in the experiment on vTreg53 (Fat) TCR (SPR), the “koff” value was “fast kon and koff”; the “kon” value is “fast kon”. The “CD69 up-regulation” value in experiment [1] (overnight stimulation, screen at 100 µM) is listed as “able to up-regulate CD69 expression”. In addition, the midpoint of the response in experiment [1] (peptide titration, CD69 (Figure 3D), overnight, mean ± SD from n = 2 biological replicates, 1 representative of 3 experiments), the EC50, lay at 40.7 µM.

As usually defined, the Kd is the concentration at which binding is half-saturated. Low values mean a tighter complex, high ones a looser complex. Usually EC50 stands for the concentration at which the effect is half-maximal. Read a high EC50 as weaker potency.
